Experimental data: US20100330172A1, “CONTROLLED-RELEASE PHARMACEUTICAL FORMULATION” (ALPHAPHARM PTY LTD, priority 2007, published 2010)

Key:
[1] = cited from earlier work
norepinephrine uptake = conditions: in vitro studies; cited from earlier work
dopamine uptake = conditions: in vitro studies; cited from earlier work
[2] = Desvenlafaxine particle size (MMD); assay type: physicochemical; conditions: particle size of desvenlafaxine salt grade
Excerpt: The “mass mean diameter” or “MMD” refers to the median particle diameter based on mass (i.e. the particle diameter where one half of the mass of particles is contributed by particles with a lesser diameter and one half of the mass of particles is contributed by particles with a greater diameter) and can be measured using various commonly available methods such as measurement using light (eg. light-scattering methods or turbidimetric methods), sedimentation methods (eg. pipette analysis using an Andreassen pipette, sedimentation scales, photo-sedimentometers or sedimentation in a centrifugal force), pulse methods (eg. Coulter counter), or sorting by means of gravitational or centrifugal force.
The particle size of desvenlafaxine utilised in the following formulations are set out in Table 1.

[3] = in vitro dissolution, USP II apparatus (paddles), 50 rpm, pH 6.8 phosphate buffer; assay type: physicochemical; conditions: FIG. 1; similar time points; matrix tablets with Eudragit NE40D
Procedure: FIG. 1 is the in vitro dissolution profiles of embodied formulations of the present invention when measured using a USP II apparatus at 50 rpm in pH 6.8 phosphate buffer.
The resulting in vitro dissolution profiles of these batches as tested using a USP II apparatus (paddles) at 50 rpm in pH 6.8 phosphate buffer are set out in Table 3.

SMILES | MMD (mass mean diameter) [2] [μm] | change in amount of desvenlafaxine dissolved, coarse to fine [3] | also measured
CN(C)CC(c1ccc(O)cc1)C1(O)CCCCC1 (racemic) [desvenlafaxine, (+/−)-4-[2-(dimethylamino)-1-(1-hydroxycyclohexyl)ethyl]phenol] | – | – | half-life ([1]; in vivo): about 10 hours; half-life relative to venlafaxine ([1]; times longer than the half-life of venlafaxine): approximately 2.5 times; inhibition of norepinephrine uptake compared with racemic venlafaxine (norepinephrine uptake): more potent inhibitor; inhibition of dopamine uptake compared with racemic venlafaxine (dopamine uptake): more potent inhibitor
CN(C)CC(c1ccc(O)cc1)C1(O)CCCCC1.O=C(O)/C=C/C(=O)O (stereo not shown) [Coarse fumarate] | 184 | – | –
CN(C)CC(c1ccc(O)cc1)C1(O)CCCCC1.O=C(O)CCC(=O)O (stereo not shown) [Fine succinate] | 37 | marked increase in the amount of desvenlafaxine dissolved | –
CN(C)CC(c1ccc(O)cc1)C1(O)CCCCC1.O=C(O)/C=C/C(=O)O (stereo not shown) [Fine fumarate] | 21 | approximately similar increase in the amount of desvenlafaxine dissolved | –
CN(C)CC(c1ccc(O)cc1)C1(O)CCCCC1.O=C(O)CCC(=O)O (stereo not shown) [Coarse succinate] | 186 | – | –
